Results as given in patent publication US10786505B2, “Administration of NEDD8-activating enzyme inhibitor and chemotherapeutic agents” (Millennium Pharmaceuticals, Inc., priority 2013, dated 2020).

Experiments:
[1] = system: NCI-H209; assay: In vitro cell viability combination assay (CellTiter-Glo); conditions: agent combined with MLN4924, vehicle DMSO, 96 hr
Protocol: (§7) General Method: Cells are grown in their respective growth media, supplemented with 10% fetal bovine serum unless otherwise noted. […] A portion of each plate is used for positive controls (no agent is added), while another portion of each plate is used for negative controls (no cells are added). Viability is assessed with CellTiter-Glo® Cell Viability reagent used according to manufacturer's instructions (Promega). Luminescence is measured using a LEADseeker imaging system (GE Healthcare).
(§8) The viability data is normalized separately for each plate by scaling the data so that the median of the negative controls is 0 and the median of the positive controls is 100. More formally,
(§9) [formula] where Vi is the normalized viability of the i^th well, Ui is the raw viability measurement, median (U) is the median of the negative controls, and median (U+) is the median of the positive controls. After normalization, the controls are discarded.
(§10) where E1, E2, E3, E4, I1, I2, I3, S1, S2, S3, and S4 are parameters, CA and CB are the respective concentrations of agents A and B, and V is the normalized viability measurement. It is assumed that the error values are independent and identically distributed normal random variables.
(§11) The Combination Index is computed based on an isobologram, which is a slice of the dose response surface with constant viability. For the present analysis, the 50% isobologram, which is the dose contour that has 50% viability, is used. […] Since the choice of (DA, DB) can be arbitrary, the constraint DA/DB=EC50A/EC50B is used.
(§12) In such cases, Nonlinear Blending can be used as an alternative measure of synergy or additivity. Nonlinear Blending is found by considering a slice of the dose response surface that intersects both concentration axes and runs parallel to the viability axis. Let VA and VB be the viability where the slice intersects the drug A and B axes, respectively. Let Vmax and Vmin be the maximum and minimum viabilities along the slice. Let NLBS=min(VA,VB)−Vmin NLBA=Vmax−max(VA,VB) Define the Nonlinear Blending value to be NLBS if NLBS>NLBA and −NLBA otherwise.
(§13) After completing the analysis of individual plates, the results are combined across the replicates. For a given measure and a set of replicates, the overall mean and standard error are computed using weighted averaging. A null mean, which corresponded to an additive effect, is then compared with the overall mean. The null mean is 1 for the Combination Index and 0 for Nonlinear Blending. Next, a two sized Z-test is performed based on the estimated mean and standard error. This produces a p-value for each measure and each cell line.
(§14) After computing the mean, standard error, and p-value for each set of replicates, these values require interpretation. Thus, a standard procedure is used to produce a classification (synergy, additivity, subadditivity, antagonism, or inconclusive) in each case. If the Combination Index exists for more than half of the replicates, then these measures are used to make the classification.
(§15) Consider the case where the Combination Index is used to make the classification. If the p-value is greater than 0.05, the estimate for the Combination Index is not statistically different from 1. However, if the standard error is also very large, then the estimate is too uncertain to be informative. […] Otherwise, the classification is “Additivity”. When the p-value is less than 0.05, the estimate for the Combination Index is statistically different from 1. However, if the mean is still close to 1, then the difference is not of practical significance. Thus, the result is classified based on the mean. A mean in the range (0.8, 1.2) is considered close enough to 1 to be classified as Additivity. A mean in the range (0, 0.8) is considered low enough to be classified as Synergy. […] The threshold value of 2 can be derived from the definition of the Combination Index.

[2] = system: NCI-H82; assay: as above; conditions: agent combined with MLN4924, vehicle DMSO, 96 hr
Protocol: as §7, §8, §9, §10, §11, §12, §13, §14, §15

[3] = system: NCI-H510; assay: as above; conditions: agent combined with MLN4924, vehicle DMSO, 96 hr
Protocol: as §7, §8, §9, §10, §11, §12, §13, §14, §15

[4] = system: NCI-H69 xenograft model; assay: Combination of carboplatin and MLN4924 in NCI-H69 xenograft model; type: in vivo, mice
Protocol: NCI-H69 or NCI-H82 small cell lung tumor fragments (30- to 40-mg) are implanted into the subcutaneous space in the area of the right flank of NCr nu/nu mice (7-10 weeks, Charles River Laboratories, Inc, Frederick Md. or Wilmington, Mass.) using a 12-gauge trocar.
(§1) Carboplatin (CARBOplatin Injection, Hospira, Inc., Qilu Pharmaceutical Co., Ltd. Jinan, Shandong, China, and Teva Gry-Pharma GmbH, Ulm, Germany) is formulated in 0.9% saline and administered by IP injection once weekly (QW) at 50 mg/kg. The once weekly schedule is also described as every 7 days (Q7D).
(§2) Tumors are measured twice weekly using a vernier caliper. Tumor volumes are calculated using standard procedures (0.5×(length×width^2)). […] Tumor size and body weight are measured approximately twice a week for the duration of the study. Mice are euthanized when their tumor volume reached 10% of their body weight, or when the average tumor volume of a treatment or control group reached approximately 2000 mm^3. Tumor growth continued to be monitored after the dosing period in some studies. Average tumor volume is reported as a function of time for selected groups of selected studies in Figures A, B, and C.
(§3) Measurements from day 0 to 18, 21 or 22 are analyzed as specified in Tables 4-9. All tumor volumes have a value of 1 added to them before log10 transformation. For each animal, the log tumor volume at day 0 is subtracted from the log tumor volume on the subsequent days. This difference vs. time is used to calculate an area under the curve (AUC) for each animal using the trapezoid rule. […] The synergy score for the combination of agents A and B is defined as 100*(mean(AUCAB)−mean(AUCA)−mean(AUCB)+mean(AUCctl))/mean(AUCctl): where AUCAB, AUCA, AUCB, and AUCctl are the AUC values for animals in the combination group, the A group, the B group, and the control group, respectively. The standard error of the synergy score is computed based on the variation in the AUC values among the animals. […] If the P-value is above 0.05, then the combination is considered to be additive. If the P-value is below 0.05, and the synergy score is less than zero, then the combination is considered to be synergistic. […] Otherwise, the combination is classified as antagonistic.

[5] = system: HCT116; assay: In vitro cell viability combination assay (CellTiter-Glo); conditions: agent combined with MLN4924, vehicle PBS, 48 hr
Protocol: as §7, §8, §9, §10, §11, §12, §13, §14, §15

[6] = system: LU1143 xenograft model; assay: Combination of docetaxel or carboplatin and MLN4924 in LU1143 xenograft model; type: in vivo, mice; conditions: 50 mg/kg carboplatin QW IP
Protocol: (§4) Docetaxel (Henry Schein, Inc., Pittsburgh Pa., Qilu Pharmaceutical Co., Ltd., Jinan, Shandong, China, and Sanofi-Aventis) is formulated in 0.9% saline and administered by intravenous injection (IV) once weekly (QW) at 5 mg/kg or 10 mg/kg.
as §1, §2
Measurements from day 0 to 18, 21 or 22 are analyzed as specified in Tables 4-9. All tumor volumes have a value of 1 added to them before log10 transformation. For each animal, the log tumor volume at day 0 is subtracted from the log tumor volume on the subsequent days. This difference vs. time is used to calculate an area under the curve (AUC) for each animal using the trapezoid rule. […] The synergy score for the combination of agents A and B is defined as 100*(mean(AUCAB)−mean(AUCA)−mean(AUCB)+mean(AUCctl))/mean(AUCctl): where AUCAB, AUCA, AUCB, and AUCctl are the AUC values for animals in the combination group, the A group, the B group, and the control group, respectively. The standard error of the synergy score is computed based on the variation in the AUC values among the animals. […] If the P-value is above 0.05, then the combination is considered to be additive. […]

[7] = system: A549; assay: In vitro cell viability combination assay (CellTiter-Glo); conditions: agent combined with MLN4924, vehicle PBS, 72 hr
Protocol: as §7, §8, §9, §10, §11, §12, §13, §14, §15

[8] = system: NCI-H526; assay: as above; conditions: agent combined with MLN4924, vehicle DMSO, 96 hr
Protocol: as §7, §8, §9, §10, §11, §12, §13, §14, §15

[9] = system: LXFE409 xenograft model; assay: Combination of docetaxel or carboplatin and MLN4924 in LXFE409 xenograft model; type: in vivo, mice; conditions: LXFE409 xenograft; 50 mg/kg carboplatin QW IP
Protocol: LXFE409 squamous non small cell lung cancer tumor fragments are implanted into the subcutaneous space in the flank of female NMRI nu/nu mice (5-7 weeks, Janvier Labs, Saint Berthevin, France).
as §4, §1, §2, §3

[10] = system: HARA; assay: In vitro cell viability combination assay (CellTiter-Glo); type: cell-based; conditions: agent combined with MLN4924, vehicle PBS, 72 hr
Excerpt: (§5) After normalization, the controls are discarded.
(§6) Otherwise, the classification is “Additivity”.

[11] = system: CALU-1; assay: as above; type: cell-based; conditions: agent combined with MLN4924, vehicle PBS, 72 hr
Excerpt: as §5, §6

[12] = system: NCI-H1703; assay: as above; type: cell-based; conditions: agent combined with MLN4924, vehicle PBS, 72 hr
Excerpt: as §5, §6

[13] = system: CHAGO-K-1; assay: as above; type: cell-based; conditions: agent combined with MLN4924, vehicle PBS, 72 hr
Excerpt: as §5, §6

[14] = system: RERF-LC-SQ1; assay: as above; type: cell-based; conditions: agent combined with MLN4924, vehicle PBS, 72 hr
Excerpt: as §5, §6

[15] = system: EBC-1; assay: as above; type: cell-based; conditions: agent combined with MLN4924, vehicle PBS, 72 hr
Excerpt: as §5, §6

[16] = system: SW900; assay: as above; type: cell-based; conditions: agent combined with MLN4924, vehicle PBS, 72 hr
Excerpt: as §5, §6

[17] = system: VMRC-LCP; assay: as above; type: cell-based; conditions: agent combined with MLN4924, vehicle PBS, 72 hr
Excerpt: as §5, §6

[18] = system: NCI-H69; assay: as above; type: cell-based; conditions: agent combined with MLN4924, vehicle DMSO, 96 hr
Excerpt: as §5, §6

[19] = system: LK-2; assay: as above; type: cell-based; conditions: agent combined with MLN4924, vehicle PBS, 72 hr
Excerpt: as §5, §6

[20] = system: SK-MES-1; assay: as above; type: cell-based; conditions: agent combined with MLN4924, vehicle PBS, 72 hr
Excerpt: as §5, §6

[21] = system: LUDLU-1; assay: as above; type: cell-based; conditions: agent combined with MLN4924, vehicle PBS, 72 hr
Excerpt: as §5, §6

[22] = system: NCI-H2170; assay: as above; type: cell-based; conditions: agent combined with MLN4924, vehicle PBS, 72 hr
Excerpt: as §5, §6

[23] = system: NCI-H1299; assay: as above; type: cell-based; conditions: agent combined with MLN4924, vehicle PBS, 72 hr
Excerpt: as §5, §6

[24] = system: SW1573; assay: as above; type: cell-based; conditions: agent combined with MLN4924, vehicle PBS, 72 hr
Excerpt: as §5, §6

[25] = system: NCI-H596; assay: as above; type: cell-based; conditions: agent combined with MLN4924, vehicle PBS, 72 hr
Excerpt: as §5, §6

[26] = system: NCI-H520; assay: as above; type: cell-based; conditions: agent combined with MLN4924, vehicle PBS, 72 hr
Excerpt: as §5, §6

[27] = system: KNS-62; assay: as above; type: cell-based; conditions: agent combined with MLN4924, vehicle PBS, 72 hr
Excerpt: as §5, §6

[28] = system: LC-1-SQ; assay: as above; type: cell-based; conditions: agent combined with MLN4924, vehicle PBS, 72 hr
Excerpt: as §5, §6

SMILES: N.N.O=C([O-])C1(C(=O)[O-])CCC1.[Pt+2] [carboplatin]
- Combination Index [1]: 1.00 ± 0.06
- Nonlinear Blending [1]: −1 ± 1
- Combination Index [2]: 0.65 ± 0.1
- Nonlinear Blending [2]: 12 ± 2
- Combination Index [3]: 0.81 ± 0.08
- Nonlinear Blending [3]: 5 ± 2
- average tumor volume day 21 ([4]; 50 mg/kg carboplatin QW IP): 501.3 mm^3
- tumor growth during the treatment period (in words) ([4]; FIG. 3, MLN4924 SC 120 mg/kg BID Q3Dx2/week, carboplatin 50 mg/kg IP QW, single agents or their combination): inhibited tumor growth compared to the control vehicle group
- Combination Index [5]: 0.71 ± 0.03
- Nonlinear Blending [5]: 19 ± 2
- average tumor volume day 21 [6]: 658.7 mm^3
- Combination Index [7]: 0.72 ± 0.05
- Nonlinear Blending [7]: 8 ± 4
- Combination Index [8]: 1.02 ± 0.1
- Nonlinear Blending [8]: 0 ± 2
- average tumor volume day 21 [9]: 204.4 mm^3
- Combination Index [10]: 1.06 ± 0.1
- Nonlinear Blending [10]: −3 ± 10
- Combination Index [11]: 0.78 ± 0.05
- Nonlinear Blending [11]: 11 ± 6
- Combination Index [12]: 1.31 ± 0.02
- Nonlinear Blending [12]: −23 ± 2
- Combination Index [13]: 0.88 ± 0.03
- Nonlinear Blending [13]: 11 ± 1
- Combination Index [14]: 0.77 ± 0.06
- Nonlinear Blending [14]: 11 ± 1
- Combination Index [15]: 1.24 ± 0.06
- Nonlinear Blending [15]: −7 ± 1
- Combination Index [16]: 0.85 ± 0.06
- Nonlinear Blending [16]: 10 ± 1
- Combination Index [17]: 1.00 ± 0.04
- Nonlinear Blending [17]: −3 ± 1
- Combination Index [18]: 1.18 ± 0.09
- Nonlinear Blending [18]: −5 ± 1
- Combination Index [19]: 0.66 ± 0.05
- Nonlinear Blending [19]: 15 ± 2
- Combination Index [20]: 1.32 ± 0.06
- Nonlinear Blending [20]: −22 ± 4
- Combination Index [21]: 0.84 ± 0.2
- Nonlinear Blending [21]: 5 ± 5
- Combination Index [22]: 1.38 ± 0.1
- Nonlinear Blending [22]: −19 ± 7
- Combination Index [23]: 1.10 ± 0.05
- Nonlinear Blending [23]: −8 ± 2
- Nonlinear Blending [24]: 6 ± 5
- Combination Index [25]: 0.59 ± 0.1
- Nonlinear Blending [25]: 10 ± 7
- Nonlinear Blending [26]: 9 ± 20
- Combination Index [27]: 0.82 ± 0.1
- Nonlinear Blending [27]: 10 ± 5
- Combination Index [28]: 0.51 ± 0.04
- Nonlinear Blending [28]: 28 ± 2
